One compound from patent US7608750B2, “Nonhuman model animal unresponsive to immunopotentiating synthetic compound” (Japan Science and Technology Agency, priority 2001, dated 2009) can be followed below.

Experiment [1] has as its system peritoneal macrophages derived from TLR7 knockout mice (TLR7KO). Description: Cytokine production by peritoneal macrophages (ELISA), TLR7 knockout. It is filed as cell-based, mouse. Conditions: 5×10^4 cells, presence or absence of 30 U/ml IFN-γ, 24 h culture. As for the experimental part: 2 ml of 4% thioglycollic acid medium (DIFCO) were injected into the intraperitoneals of the wild-type mice, TLR7 knockout mice (TLR7KO), MyD88 knockout mice (MyD88KO) and TLR9 knockout mice (TLR9KO), respectively, three days later, peritoneal exudate cells were isolated from intraperitoneal of each mouse, these cells were cultured in PRMI 1640 medium (GIBCO) added with 10% fatal bovine serum (GIBCO) at 37° C. for two hours, nonadherent cells were […] by washing with Hank's buffered salt solution (HBBS; GIBCO) at iced temperature, and the adherent cells were used as peritoneal macrophages in following experiment. Total RNA (10 μg) obtained from macrophages derived from the wild-type mice (+/Y) and TLR7 knockout mouse (TLR7KO) was electrophoresed, transferred onto a nylon membrane, and hybridized with a part of TLR7 DNA, and this membrane was rehybridized with β-actin probe. It was examined by the Northern blotting. From the results shown in FIG. 3, the expression of TLR7mRNA could not be found in TLR7 knockout mice.
In addition, the measurement of cytokine generated from peritoneal macrophages was executed as follows; […] peritoneal macrophages of 2×10^5 well or 5×10^4 well were cultured in 96-well plate respectively, and after stimulated with the above-mentioned reagents for 24 h, concentration of TNF-α, IL-12p40, IL-6 and/or IFN-α were measured by ELISA according to the manual.
Next, the peritoneal macrophages (5×10^4 cells) derived from TLR7 knockout mice (TLR7KO), TLR9 knockout mice (TLR9KO) and wild-type mice were stimulated with CpGDNA 1668 (phosphorothioate 1688). D19, AAC30, natural 1688 (phosphodiester 1688). genomic DNA derived from Escherichia coli, or genomic DNA derived from Micrococcus deikticus at of a predetermined concentration in the presence (+) or absence (−) of 30 U/ml of IPN-γ, and the concentration of IL-12p40 produced by production of peritoneal macrophages contained in cultured supernatant was measured by ELISA after 24 h of culture. The results are shown in FIG. 6 (in the figure, marks of * show detection limits and below). […]
In general terms: In an ELISA, binding on a coated surface is turned into a signal by an enzyme label.

The target in experiment [2] is T1, TLR7 (Homo sapiens, UniProt Q9NYK1).
T1 construct: expressed in transfected cells; host or cells: HEK293
As to the kind of experiment: NF-κB reporter gene (luciferase) in HEK293 cells transfected with TLR7 expression plasmids. In kind it is cell-based. Conditions: HEK293 cells transiently cotransfected with human TLR7 expression plasmids, before and after R-848 stimulation. The procedure: The functional role of TLR7 in transactivation of NF-κB reporter gene induced by R-848 was examined. HEK293 cells were transiently cotransfected with TLR7 expression plasmids derived from human, and luciferase activity was measured before and after R-848 stimulation. The peritoneal macrophages derived from TLR7 knockout mice (TLR7KO) and wild-type mice stimulated with thioglycollic acid were stimulated with 100 nm of R-848 or 1.0 μM of phosphothioate modified CpGDNA 1668 (CpG), all cell lysate were prepared, immunoprecipated with anti-JNK antibody, and JNK activity was examined by In Vitro Kinase Assay using GST-c-Jun fusion protein as a substrate. The same lysate was blotted with anti-JNK antibody. Moreover, the lysate was immunoprecipated with anti-IRAK, and kinase activity of IRAK was examined by In Vitro Kinase Assay. The same lysate was blotted with anti-IRAK antibody. […] It is important to activate TLR7-MyD88-dependent signal pathway for the effect of imidazoquinoline in vivo.
On the technique in general: A reporter such as luciferase makes a cellular process visible.

The subject of experiment [3] is BALB/c mice (wild-type). Description: Serum cytokines after oral administration of imidazoquinolines. In kind it is in vivo, mouse. Conditions: after two hours, N=3. The procedure: Before examining the reactivity of TLR7 knockout mice to imiquimod and R-848 which are imidazoquinoline group compound, firstly imiquimod or R-848 were administered to BALB/c mice (wild-type) orally at the predetermined concentration, respectively, the concentration of IFN-α, TNF-α and IL-12 in serum were measured after two hours. […] The data is shown as a mean value+/−S.D. (N=3). Similarly, the ability of these compounds to activate immune cells via TLR was examined using imiquimod or R-848 respectively. The peritoneal macrophages (5×10^4 cells) from wild-type mice and MyD88 knockout mice prepared in example 2, were stimulated by imiquimod or R-848, in the presence or absence of 30 U/ml of IFN-γ, and the concentration of TNF-α and IL-12 produced by peritoneal macrophages were measured by ELISA. […] The data is shown as a mean value+/−S.D. (N=3).

T1 sequence (Q9NYK1 27-1049): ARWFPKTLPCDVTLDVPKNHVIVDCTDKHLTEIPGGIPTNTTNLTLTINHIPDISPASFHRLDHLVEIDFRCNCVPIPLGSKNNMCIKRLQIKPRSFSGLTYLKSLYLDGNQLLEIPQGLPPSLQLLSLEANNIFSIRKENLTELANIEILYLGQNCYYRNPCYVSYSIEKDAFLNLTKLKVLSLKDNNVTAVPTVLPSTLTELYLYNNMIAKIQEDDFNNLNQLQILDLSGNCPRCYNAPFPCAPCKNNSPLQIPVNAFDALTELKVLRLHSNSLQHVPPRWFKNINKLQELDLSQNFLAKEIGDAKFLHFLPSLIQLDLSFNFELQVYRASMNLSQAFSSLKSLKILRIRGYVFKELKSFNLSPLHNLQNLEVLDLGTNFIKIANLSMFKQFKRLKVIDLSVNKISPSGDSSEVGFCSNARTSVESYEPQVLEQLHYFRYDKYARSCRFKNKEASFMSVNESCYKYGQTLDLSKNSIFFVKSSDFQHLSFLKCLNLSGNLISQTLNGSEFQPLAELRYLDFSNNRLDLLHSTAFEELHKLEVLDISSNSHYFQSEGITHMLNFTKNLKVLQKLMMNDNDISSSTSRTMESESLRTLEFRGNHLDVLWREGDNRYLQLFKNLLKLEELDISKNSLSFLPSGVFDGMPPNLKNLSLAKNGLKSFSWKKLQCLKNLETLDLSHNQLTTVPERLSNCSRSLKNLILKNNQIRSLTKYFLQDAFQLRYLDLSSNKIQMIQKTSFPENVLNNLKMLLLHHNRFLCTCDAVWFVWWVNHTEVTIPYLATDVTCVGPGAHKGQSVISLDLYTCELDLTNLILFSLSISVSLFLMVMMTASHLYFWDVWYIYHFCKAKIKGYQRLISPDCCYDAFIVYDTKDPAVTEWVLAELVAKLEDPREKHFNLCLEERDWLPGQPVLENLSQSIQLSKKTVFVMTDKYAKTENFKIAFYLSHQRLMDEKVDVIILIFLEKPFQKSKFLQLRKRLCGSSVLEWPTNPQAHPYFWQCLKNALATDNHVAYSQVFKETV

Regarding `CCOCc1nc2c(N)nc3ccccc3c2n1CC(C)(C)O` [R-848, resiquimod], in experiment [1], the “production of IL-6 by peritoneal macrophages” value is reported as “not confirmed”, the “production of IL-12p40 by peritoneal macrophages” value is given as “not confirmed” and the “production of TNF-α by peritoneal macrophages” value is “not confirmed”. The “NF-κB-dependent promoter (luciferase activity)” value in experiment [2] is “promoted”. In experiment [3], the “concentration of IFN-α in serum” value is recorded as “increased depending on applied dose”, the “concentration of IL-12 in serum” value is “increased depending on applied dose” and the “concentration of TNF-α in serum” value was “increased depending on applied dose”.
